Assay results as given in ChEMBL document CHEMBL5346877, “A-ring-fused pyrazoles of dihydrotestosterone targeting prostate cancer cells via the downregulation of the androgen receptor” (Eur J Med Chem, 2023).
The source made the active and inactive calls. No cut-off for these calls is given here.

Tests used:
[1] = Downregulation of AR protein expression in human LAPC4 cells assessed as AR levels at 10 uM incubated for 24 hrs by immunoblotting analysis; type: functional
LAPC4 [2] = assay: Inhibition of colony formation in human LAPC4 cells at 10 uM incubated for 10 days by crystal violet staining based assay; type: functional; settings: LAPC4, 240 h, time 10 day
LAPC4 [3] = assay: Cytotoxicity against human LAPC4 cells assessed as cell viability at 20 uM incubated for 72 hrs by resazurin dye based microplate reader assay; type: functional; settings: read-out: Activity
CWR22R = assay: Cytotoxicity against human 22Rv1 cells assessed as cell viability at 20 uM incubated for 72 hrs by resazurin dye based microplate reader assay; type: functional; settings: read-out: Activity
DU-145 = assay: Cytotoxicity against human DU-145 cells assessed as cell viability at 20 uM incubated for 72 hrs by resazurin dye based microplate reader assay; type: functional; settings: read-out: Activity
LAPC4 [4] = assay: Inhibition of colony formation in human LAPC4 cells at 5 uM incubated for 10 days by crystal violet staining based assay; type: functional, cell-based; settings: time 10.0 day
[5] = target: T1, Androgen receptor (Homo sapiens) (UniProt P10275); assay: Antagonist activity at AR in human LAPC4 cells assessed as reduction in Nkx3.1 expression at 10 uM incubated for 24 hrs in presence of R1881 by Western blotting analysis; type: cell-based; settings: filed as antagonist
T1 sequence (whole entry): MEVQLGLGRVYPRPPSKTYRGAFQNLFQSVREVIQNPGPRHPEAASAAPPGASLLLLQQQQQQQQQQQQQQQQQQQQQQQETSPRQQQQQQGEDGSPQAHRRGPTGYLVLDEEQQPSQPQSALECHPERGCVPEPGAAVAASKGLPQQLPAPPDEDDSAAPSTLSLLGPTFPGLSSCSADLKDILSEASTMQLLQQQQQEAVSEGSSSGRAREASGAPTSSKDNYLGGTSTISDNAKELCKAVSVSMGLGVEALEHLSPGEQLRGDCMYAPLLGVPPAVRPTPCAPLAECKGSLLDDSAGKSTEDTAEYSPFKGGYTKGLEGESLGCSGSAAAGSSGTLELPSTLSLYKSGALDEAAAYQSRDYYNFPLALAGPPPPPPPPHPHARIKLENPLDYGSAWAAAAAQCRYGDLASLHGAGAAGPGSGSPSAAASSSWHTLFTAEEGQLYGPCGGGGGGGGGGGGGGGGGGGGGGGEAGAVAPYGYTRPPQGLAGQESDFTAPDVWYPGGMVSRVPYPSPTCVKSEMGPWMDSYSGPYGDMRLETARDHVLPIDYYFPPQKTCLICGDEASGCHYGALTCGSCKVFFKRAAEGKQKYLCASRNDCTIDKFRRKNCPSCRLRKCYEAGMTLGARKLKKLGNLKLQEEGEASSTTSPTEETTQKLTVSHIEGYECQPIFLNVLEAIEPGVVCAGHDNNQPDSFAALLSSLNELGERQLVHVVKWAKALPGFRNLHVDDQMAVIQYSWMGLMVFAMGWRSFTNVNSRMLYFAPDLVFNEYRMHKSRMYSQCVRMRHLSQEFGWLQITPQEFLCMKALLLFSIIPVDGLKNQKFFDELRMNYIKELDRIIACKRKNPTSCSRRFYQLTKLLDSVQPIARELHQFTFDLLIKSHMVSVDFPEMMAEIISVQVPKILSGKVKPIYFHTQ

[6] = target: T1, Androgen receptor (Homo sapiens); assay: Antagonist activity at AR in human LAPC4 cells assessed as reduction in PSA expression at 10 uM incubated for 24 hrs in presence of R1881 by Western blotting analysis; type: cell-based; settings: filed as antagonist
LAPC4 [7] = assay: Downregulation of PSA protein expression in human LAPC4 cells at 10 uM incubated for 24 hrs by immunoblotting analysis; type: functional, cell-based
LAPC4 [8] = assay: Downregulation of Nkx3.1 protein expression in human LAPC4 cells at 10 uM incubated for 24 hrs by immunoblotting analysis; type: functional, cell-based
[9] = target: T1, Androgen receptor (Homo sapiens); assay: Antagonist activity at AR in human LNCaP-abl cells assessed as reduction in phosphorylation at S81 at 10 uM incubated for 24 hrs in presence of R1881 by Western blotting analysis; type: cell-based; settings: filed as antagonist
[10] = target: T1, Androgen receptor (Homo sapiens); assay: Antagonist activity at AR in human LNCaP-abl cells assessed as reduction in PSA expression at 10 uM incubated for 24 hrs in presence of R1881 by Western blotting analysis; type: cell-based; settings: filed as antagonist

| Structure (SMILES) | Activity [1] | inhibition at 10 µM (LAPC4 [2]) | viability at 20 µM (LAPC4 [3]) | viability at 20 µM (CWR22R) | viability at 20 µM (DU-145) | inhibition (LAPC4 [4]) | Activity [5] | Activity [6] | Activity (LAPC4 [7]) | Activity (LAPC4 [8]) | Activity [9] | Activity [10] |
| --- | --- | --- | --- | --- | --- | --- | --- | --- | --- | --- | --- | --- |
| Cn1nc2c(c1-c1ccco1)C[C@@]1(C)[C@@H](CC[C@@H]3[C@@H]1CC[C@]1(C)[C@@H](O)CC[C@@H]31)C2 | 78% | 2% | 50% | 18% | 100% | Active | Active | Active |  |  |  |  |
| Cn1nc2c(c1-c1ccc(Br)cc1)C[C@@]1(C)[C@@H](CC[C@@H]3[C@@H]1CC[C@]1(C)C(=O)CC[C@@H]31)C2 | 49% | 15% | 20% | 56% | 96% | Active | Active | Active |  |  |  |  |
| C[C@]12Cc3cnn(-c4ccccc4)c3C[C@@H]1CC[C@@H]1[C@@H]2CC[C@]2(C)[C@@H](O)CC[C@@H]12 | >=100% | 1% | 60% | 36% | 97% |  |  |  | Active | Active |  |  |
| C[C@]12Cc3cnn(-c4ccc(Cl)cc4)c3C[C@@H]1CC[C@@H]1[C@@H]2CC[C@]2(C)[C@@H](O)CC[C@@H]12 | >=100% | 0% | 49% | 80% | 91% |  |  |  | Active | Active |  |  |
| C[C@]12Cc3c(nn(-c4ccccc4)c3-c3ccc(Cl)cc3)C[C@@H]1CC[C@@H]1[C@@H]2CC[C@]2(C)C(=O)CC[C@@H]12 | >=100% | 91% | 83% | 93% | 98% |  |  |  | inactive | inactive |  |  |
| Cc1c2c(nn1-c1ccccc1)C[C@@H]1CC[C@@H]3[C@H](CC[C@]4(C)[C@@H](O)CC[C@@H]34)[C@@]1(C)C2 |  | 1% | 65% | 24% | 97% | Active | Active | Active |  |  |  |  |
| C[C@]12Cc3cn(-c4ccc(F)cc4)nc3C[C@@H]1CC[C@@H]1[C@@H]2CC[C@]2(C)[C@@H](O)CC[C@@H]12 | >=100% | 66% | 95% | ≥ 100% | ≥ 100% |  |  |  | inactive | inactive |  |  |
| C[C@]12Cc3cn(-c4ccccc4)nc3C[C@@H]1CC[C@@H]1[C@@H]2CC[C@]2(C)[C@@H](O)CC[C@@H]12 | >=100% | 59% | 100% | ≥ 100% | ≥ 100% |  |  |  | inactive | inactive |  |  |
| Cc1c2c(nn1-c1ccc(C#N)cc1)C[C@@H]1CC[C@@H]3[C@H](CC[C@]4(C)C(=O)CC[C@@H]34)[C@@]1(C)C2 |  | 29% | 78% | 87% | ≥ 100% | Active |  |  |  |  | Active | Active |
| Cc1ccc(-n2ncc3c2C[C@@H]2CC[C@@H]4[C@H](CC[C@]5(C)[C@@H](O)CC[C@@H]45)[C@@]2(C)C3)cc1 | >=100% | 0% | 70% | 97% | 96% |  |  |  | Active | Active |  |  |
| C[C@]12Cc3c(nn(-c4ccccc4)c3-c3ccc(O)cc3)C[C@@H]1CC[C@@H]1[C@@H]2CC[C@]2(C)C(=O)CC[C@@H]12 | >=100% | 39% | 67% | 57% | 94% |  |  |  | inactive | inactive |  |  |
| C[C@]12Cc3c(nn(-c4ccccc4)c3-c3ccc(Cl)cc3)C[C@@H]1CC[C@@H]1[C@@H]2CC[C@]2(C)[C@@H](O)CC[C@@H]12 | >=100% | 47% | 30% | 4% | 5% |  |  |  | inactive | inactive |  |  |
| Cn1nc2c(c1-c1cccs1)C[C@@]1(C)[C@@H](CC[C@@H]3[C@@H]1CC[C@]1(C)[C@@H](O)CC[C@@H]31)C2 | 87% | 1% | 46% | 44% | 100% | Active | Active | Active |  |  |  |  |
| Cc1c2c(nn1C)C[C@@H]1CC[C@@H]3[C@H](CC[C@]4(C)[C@@H](O)CC[C@@H]34)[C@@]1(C)C2 | 98% | 36% | 52% | 52% | 98% |  |  |  | inactive | inactive |  |  |
